Ends that are not written are not given here.
Key:
Assay type in all cases: physicochemical
[1] = Particle size of FCG24 and FLF23 in 1% Tween 20 suspensions (Countess / dynamic light scattering); conditions: 1% Tween 20 suspension; dynamic light scattering particle size analyser
[2] = Molecular size distribution of SPAPP in other nonionic surfactant solutions; conditions: 1% PEG60 dodecyl ether, Triton X-100 or Nonidet P-40; surfactant added immediately or after 90 minutes
Protocol: It was examined whether SPAPP forms high-molecular-weight aggregates in other nonionic surfactant solutions. PEG60 dodecyl ether (Polypure), Triton X-100, and Nonidet P-40 were used as surfactants at 1% in each case. As was the case with the method of Example 2, each of the surfactants was used for preparing SPAPP suspension and, after the size fractionation using centrifugation and spin-type molecular weight cutoff filters, 10% SDS was added to and mixed with each of fractions to the final concentration of 1% to dissolve the aggregates. The peptide concentrations of the fractions were measured by the BCA assay and the molecular weight distribution of SPAPP aggregates were summarized as shown in FIGS. 6A and 6B. […] In the histograms, “Ppt” indicates peptides removed by centrifugation, i.e., precipitate, which is considered to have a size of 1 μm or larger and a molecular weight of several hundred kilodaltons or more. “>100 kDa” indicates 100 kDa or more and “<100 kDa” indicates 100 kDa or less.

[3] = Isoelectric point of SPAPP
[4] = Molecular weight distribution of SPAPP aggregates (centrifugation, spin filters, BCA assay)
Protocol: The molecular weight distribution of SPAPP aggregates in the suspension was measured in accordance with the following procedure.
(i) The suspension was centrifuged at 15,000 rpm for five minutes and divided into supernatant and precipitate. This centrifugation causes particles equal to or larger than about 1 μm to precipitate.
(ii) The supernatant was applied to a molecular weight 100,000 cutoff spin filter (Amicon Microcon YM-100) and caused to pass through the filter by centrifugation.
(iii) The flow-through solution of (ii) was applied to a molecular weight 10,000 cutoff spin filter and caused to pass through the filter by centrifugation.
On each stage of the process described above, the protein concentration of the solution was measured by the BCA protein assay (Thermo Fisher Scientific) using BSA as the standard.
The time from suspension of SPAPP in pure water to addition of various surfactants was changed to confirm that the molecular size distribution of aggregates varies depending on the time. For example, in the case of 1% Tween 20, the insoluble fraction (precipitate) was 5% when the surfactants were added immediately after suspension of SPAPP in pure water, 17% when added after 1.5 hours, and 48% when added after 3 hours.

[5] = Test of solubility of peptide SPAPP to various solvents (visual transparency)
Source text: (1) Powdered purified SPAPP was mixed with various solvents at various concentrations to examine solubility.
The term “soluble” used in the following description means a state in which solvent is visually transparent and “insoluble” means a state in which solvent is visually cloudy.

FLFCWILMILVVLTFVVGANVEK (listed as Homo sapiens) [FLF23]
particle size [1]: particles with sizes larger than the signals of only the 1% Tween 20 solution were confirmed

MLPGLALLLLAAWTARA-OH [SPAPP]
formation of high-molecular-weight aggregates [2]: high-molecular-weight aggregates are formed with any of the surfactants
isoelectric point [3]: 10.9
insoluble fraction (precipitate) ([4]; 1% Tween 20 added after 1.5 hours in pure water): 17%
insoluble fraction (precipitate) ([4]; 1% Tween 20 added after 3 hours in pure water): 48%
insoluble fraction (precipitate) ([4]; 1% Tween 20 added immediately after suspension of SPAPP in pure water): 5%
Solubility ([5]; 0.1% trifluoroacetic acid (pH 2.0), SPAPP conc. 7.5 mg/ml): Soluble
Solubility ([5]; 1% Nonidet P40, SPAPP conc. 1~5 mg/ml): Soluble
Solubility ([5]; 1% PEG12, SPAPP conc. 1~5 mg/ml): Soluble
Solubility ([5]; 1% PEG24, SPAPP conc. 1~5 mg/ml): Soluble
Solubility ([5]; 1% PEG60 docesylether, SPAPP conc. 1~5 mg/ml): Soluble
Solubility ([5]; 1% SDS (anionic surfactant), SPAPP conc. 1~5 mg/ml): Soluble
Solubility ([5]; 1% TritonX-100, SPAPP conc. 1~5 mg/ml): Soluble
Solubility ([5]; 1% Tween20, SPAPP conc. 1~5 mg/ml): Soluble
Solubility ([5]; 1% Tween80, SPAPP conc. 1~5 mg/ml): Soluble
Solubility ([5]; 1% cholesterol-PEG (NOF CORPORATION NO. CS050), SPAPP conc. 1~5 mg/ml): Soluble
Solubility ([5]; 1% formic acid (pH 3.0), SPAPP conc. 0.5 mg/ml): Soluble
Solubility ([5]; 100% DMF, SPAPP conc. 20 mg/ml): Soluble
Solubility ([5]; 100% DMS0, SPAPP conc. 50 mg/ml): Soluble
Solubility ([5]; 100% methanol, SPAPP conc. 0.5 mg/ml): Soluble
Solubility ([5]; Phosphate buffer (PBS) (pH 7)): Insoluble
Solubility ([5]; Pure water, SPAPP conc. 0.1 mg/ml): Insoluble
Solubility ([5]; neutral aqueous solutions): completely insoluble
Solubility ([5]; neutral aqueous solutions containing polar and nonionic surfactants): soluble
Solubility ([5]; polar organic solvents): soluble
Solubility ([5]; strongly acidic aqueous solutions): soluble
